The text below walks through data of US20180185408A1, “ANTIFUNGAL NYLON-3 POLYMERS AND COMBINATION THERAPY USING THEM TO TREAT FUNGAL INFECTIONS” (priority 2016, published 2018).

Each structure is given as a SMILES string. Values after ≈ are worked out from the molar mass of the structure shown.

One assay relates to filamentous fungi. Description: MIC100 against non-Aspergillus filamentous fungi (CLSI M38-A2). The format is cell-based.
Assay [1] concerns Pseudogymnoascus destructans. Kind of assay: MIC100 against dermatophytes (conidia, 12°C, seven days). As to conditions: Pseudogymnoascus destructans isolate ATC MYA-4855. The format is cell-based. As to the method:
The final group of fungi tested for sensitivity to nylon-3 polymers were dermatophytes. In contrast to the other filamentous fungi tested, three of these isolates were evaluated following a modified version of the CLSI M38-A methodology (using hyphal fragments in liquid culture, because of difficulties in obtaining conidia). […] Mixed efficacy of the nylon-3 polymers was observed across the four species of dermatophytes tested. […] The activity against P. destructans, the causative agent of White Nose syndrome in bats, and just one of many emerging fungal pathogens threatening wildlife is encouraging because there are few options at present for preventing the spread of this devastating pathogen. The facility with which nylon-3 polymers can be modified could provide opportunities for the development of topical agents with high specificity for particular fungi.

As a reminder, the MIC is the least concentration at which growth counts as inhibited. Read a low MIC as a more susceptible organism. On to `CCC(C)n1ncn(-c2ccc(N3CCN(c4ccc(OCC5COC(Cn6cncn6)(c6ccc(Cl)cc6Cl)O5)cc4)CC3)cc2)c1=O` (stereo not drawn) [Itraconazole, itraconazole], for which the MIC was determined as 1 µg/mL (≈ 1.42 µM) in the assay with filamentous fungi (Penicillium expansum), 0.125 µg/mL (≈ 0.177 µM) in the assay on filamentous fungi (Talaromyces marneffei) and 0.13 µg/mL (≈ 0.184 µM) in assay [1].
